In ChEMBL document CHEMBL2401728, “An unexpected Dimroth rearrangement leading to annelated thieno[3,2-d][1,2,3]triazolo[1,5-a]pyrimidines with potent antitumor activity” (Eur J Med Chem, 2013):

What was measured:
Assay type in all cases: functional
NCI-H23 [1] = assay: Cytotoxicity against human NCI-H23 cells assessed as cellular growth at 0.1 uM after 48 hrs by SRB assay relative to control
SK-OV-3 [2] = assay: Cytotoxicity against human SKOV3 cells assessed as cellular growth at 0.1 uM after 48 hrs by SRB assay relative to control
M14 [3] = assay: Cytotoxicity against human M14 cells assessed as cellular growth at 100 uM after 48 hrs by SRB assay relative to control
IGROV-1 = assay: Cytotoxicity against human IGROV1 cells assessed as cellular growth at 100 uM after 48 hrs by SRB assay relative to control
MCF7 [4] = assay: Cytotoxicity against human MCF7 cells assessed as cellular growth at 0.1 uM after 48 hrs by SRB assay relative to control
SF-539 [5] = assay: Cytotoxicity against human SF539 cells assessed as cellular growth at 0.1 uM after 48 hrs by SRB assay relative to control
HCT-15 [6] = assay: Cytotoxicity against human HCT15 cells assessed as cellular growth at 100 uM after 48 hrs by SRB assay relative to control
NCI-H23 [7] = assay: Cytotoxicity against human NCI-H23 cells assessed as cellular growth at 1 uM after 48 hrs by SRB assay relative to control
UO-31 [8] = assay: Cytotoxicity against human UO31 cells assessed as cellular growth at 1 uM after 48 hrs by SRB assay relative to control
HCT-15 [9] = assay: Cytotoxicity against human HCT15 cells after 48 hrs by SRB assay; conditions: HCT-15, 48 h
OVCAR-3 [10] = assay: Cytotoxicity against human OVCAR3 cells assessed as cellular growth at 100 uM after 48 hrs by SRB assay relative to control
NCI-H322M = assay: Cytotoxicity against human NCI-H322M cells assessed as cellular growth at 0.1 uM after 48 hrs by SRB assay relative to control
SF-539 [11] = assay: Cytotoxicity against human SF539 cells assessed as cellular growth at 0.01 uM after 48 hrs by SRB assay relative to control
HOP-62 [12] = assay: Cytotoxicity against human HOP62 cells assessed as cellular growth at 1 uM after 48 hrs by SRB assay relative to control
SF-268 = assay: Cytotoxicity against human SF268 cells assessed as cellular growth at 1 uM after 48 hrs by SRB assay relative to control
SK-MEL-28 [13] = assay: Cytotoxicity against human SK-MEL-28 cells assessed as cellular growth at 100 uM after 48 hrs by SRB assay relative to control
M14 [14] = assay: Cytotoxicity against human M14 cells assessed as cellular growth at 10 uM after 48 hrs by SRB assay relative to control
MDA-MB-231 = assay: Cytotoxicity against human MDA-MB-231 cells after 48 hrs by SRB assay; conditions: MDA-MB-231, 48 h
OVCAR-4 = assay: Cytotoxicity against human OVCAR4 cells after 48 hrs by SRB assay; conditions: OVCAR-4, 48 h
SR = assay: Cytotoxicity against human SR cells after 48 hrs by SRB assay
ACHN = assay: Cytotoxicity against human ACHN cells assessed as cellular growth at 0.01 uM after 48 hrs by SRB assay relative to control
HCT-116 [15] = assay: Cytotoxicity against human HCT116 cells assessed as cellular growth at 100 uM after 48 hrs by SRB assay relative to control
UO-31 [16] = assay: Cytotoxicity against human UO31 cells assessed as cellular growth at 100 uM after 48 hrs by SRB assay relative to control
[17] = Cytotoxicity against human EKVX cells assessed as cellular growth at 0.1 uM after 48 hrs by SRB assay relative to control
SNB-19 = assay: Cytotoxicity against human SNB19 cells assessed as cellular growth at 1 uM after 48 hrs by SRB assay relative to control
MCF7 [18] = assay: Cytotoxicity against human MCF7 cells assessed as cellular growth at 0.01 uM after 48 hrs by SRB assay relative to control
HL-60(TB) = assay: Cytotoxicity against human HL-60(TB) cells assessed as cellular growth at 0.01 uM after 48 hrs by SRB assay relative to control
HOP-62 [19] = assay: Cytotoxicity against human HOP62 cells assessed as cellular growth at 0.01 uM after 48 hrs by SRB assay relative to control
SK-MEL-28 [20] = assay: Cytotoxicity against human SK-MEL-28 cells assessed as cellular growth at 1 uM after 48 hrs by SRB assay relative to control
Malme-3M = assay: Cytotoxicity against human MALME-3M cells assessed as cellular growth at 100 uM after 48 hrs by SRB assay relative to control
HCT-116 [21] = assay: Cytotoxicity against human HCT116 cells after 48 hrs by SRB assay; conditions: HCT-116, 48 h
SN12C = assay: Cytotoxicity against human SN12C cells assessed as cellular growth at 0.1 uM after 48 hrs by SRB assay relative to control
SK-MEL-5 = assay: Cytotoxicity against human SK-MEL-5 cells after 48 hrs by SRB assay; conditions: SK-MEL-5, 48 h
OVCAR-3 [22] = assay: Cytotoxicity against human OVCAR3 cells assessed as cellular growth at 0.1 uM after 48 hrs by SRB assay relative to control
U-251 = assay: Cytotoxicity against human U251 cells assessed as cellular growth at 0.1 uM after 48 hrs by SRB assay relative to control
HCT-15 [23] = assay: Cytotoxicity against human HCT15 cells assessed as cellular growth at 0.01 uM after 48 hrs by SRB assay relative to control
NCI-H522 = assay: Cytotoxicity against human NCI-H522 cells assessed as cellular growth at 0.1 uM after 48 hrs by SRB assay relative to control
SK-OV-3 [24] = assay: Cytotoxicity against human SKOV3 cells assessed as cellular growth at 0.01 uM after 48 hrs by SRB assay relative to control
[25] = read-out: LC50 (the source's name)
[26] = read-out: pLC50 (the source's name) (converted)

CN1CCN(CCCn2c3c(sc4ncccc43)c(=O)n3nnc(-c4ccccc4)c23)CC1
Activity (NCI-H23 [1]): 93%
Activity (SK-OV-3 [2]): 94%
Activity (M14 [3]): -67%
Activity (IGROV-1): -75%
Activity (MCF7 [4]): 87%
Activity (SF-539 [5]): 89%
Activity (HCT-15 [6]): -69%
Activity (NCI-H23 [7]): 94%
Activity (UO-31 [8]): 51%
GI50 (HCT-15 [9]; read-out: GI50): 1.82 µM
CC50 (HCT-15 [9]; [25]): 8.26 µM
TGI (HCT-15 [9]; read-out: TGI): 3.88 µM
GI50 (HCT-15 [9]; read-out: pGI50 (converted)): 1.82 µM
CC50 (HCT-15 [9]; [26]): 8.32 µM
TGI (HCT-15 [9]; read-out: pTGI (converted)): 3.89 µM
Activity (OVCAR-3 [10]): -84%
Activity (NCI-H322M): 80%
Activity (SF-539 [11]): 99%
Activity (HOP-62 [12]): 97%
Activity (SF-268): 83%
Activity (SK-MEL-28 [13]): -97%
Activity (M14 [14]): -75%
GI50 (MDA-MB-231; read-out: GI50): 1.7 µM
TGI (MDA-MB-231; read-out: TGI): 3.51 µM
GI50 (MDA-MB-231; read-out: pGI50 (converted)): 1.7 µM
TGI (MDA-MB-231; read-out: pTGI (converted)): 3.55 µM
GI50 (OVCAR-4; read-out: GI50): 1.87 µM
CC50 (OVCAR-4; [25]): 8.04 µM
TGI (OVCAR-4; read-out: TGI): 3.88 µM
GI50 (OVCAR-4; read-out: pGI50 (converted)): 1.86 µM
CC50 (OVCAR-4; [26]): 8.13 µM
TGI (OVCAR-4; read-out: pTGI (converted)): 3.89 µM
GI50 (SR; read-out: GI50): 2.25 µM
TGI (SR; read-out: TGI): 4.74 µM
GI50 (SR; read-out: pGI50 (converted)): 2.24 µM
TGI (SR; read-out: pTGI (converted)): 4.79 µM
Activity (ACHN): 105%
Activity (HCT-116 [15]): -64%
Activity (UO-31 [16]): -87%
Activity [17]: 92%
Activity (SNB-19): 107%
Activity (MCF7 [18]): 91%
Activity (HL-60(TB)): 98%
Activity (HOP-62 [19]): 97%
Activity (SK-MEL-28 [20]): 99%
Activity (Malme-3M): -82%
GI50 (HCT-116 [21]; read-out: GI50): 1.71 µM
CC50 (HCT-116 [21]; [25]): 6.96 µM
TGI (HCT-116 [21]; read-out: TGI): 3.45 µM
GI50 (HCT-116 [21]; read-out: pGI50 (converted)): 1.7 µM
CC50 (HCT-116 [21]; [26]): 6.92 µM
TGI (HCT-116 [21]; read-out: pTGI (converted)): 3.47 µM
Activity (SN12C): 88%
GI50 (SK-MEL-5; read-out: GI50): 1.7 µM
CC50 (SK-MEL-5; [25]): 5.81 µM
TGI (SK-MEL-5; read-out: TGI): 3.14 µM
GI50 (SK-MEL-5; read-out: pGI50 (converted)): 1.7 µM
CC50 (SK-MEL-5; [26]): 5.75 µM
TGI (SK-MEL-5; read-out: pTGI (converted)): 3.16 µM
Activity (OVCAR-3 [22]): 95%
Activity (U-251): 100%
Activity (HCT-15 [23]): 94%
Activity (NCI-H522): 97%
Activity (SK-OV-3 [24]): 101%

O=C(CCCn1c2c(sc3ccccc32)c(=O)n2nnc(-c3ccccc3)c12)NCCc1c[nH]cn1
Activity (NCI-H23 [1]): 75%
Activity (SK-OV-3 [2]): 99%
Activity (M14 [3]): -38%
Activity (IGROV-1): -63%
Activity (MCF7 [4]): 75%
Activity (SF-539 [5]): 1%
Activity (HCT-15 [6]): -100%
Activity (NCI-H23 [7]): 65%
Activity (UO-31 [8]): 69%
GI50 (HCT-15 [9]; read-out: GI50): 0.372 µM
CC50 (HCT-15 [9]; [25]): 5.74 µM
TGI (HCT-15 [9]; read-out: TGI): 1.9 µM
GI50 (HCT-15 [9]; read-out: pGI50 (converted)): 0.372 µM
CC50 (HCT-15 [9]; [26]): 5.75 µM
TGI (HCT-15 [9]; read-out: pTGI (converted)): 1.91 µM
Activity (OVCAR-3 [10]): -100%
Activity (NCI-H322M): 78%
Activity (SF-539 [11]): 73%
Activity (HOP-62 [12]): 67%
Activity (SF-268): 79%
Activity (SK-MEL-28 [13]): -100%
Activity (M14 [14]): -80.56%
GI50 (MDA-MB-231; read-out: GI50): 1.88 µM
LC50 (MDA-MB-231; read-out: LC50): 6.54 µM
TGI (MDA-MB-231; read-out: TGI): 3.51 µM
GI50 (MDA-MB-231; read-out: pGI50 (converted)): 1.86 µM
LC50 (MDA-MB-231; read-out: pLC50 (converted)): 6.61 µM
TGI (MDA-MB-231; read-out: pTGI (converted)): 3.47 µM
GI50 (OVCAR-4; read-out: GI50): 1.83 µM
CC50 (OVCAR-4; [25]): 8.02 µM
TGI (OVCAR-4; read-out: TGI): 3.83 µM
GI50 (OVCAR-4; read-out: pGI50 (converted)): 1.82 µM
CC50 (OVCAR-4; [26]): 7.94 µM
TGI (OVCAR-4; read-out: pTGI (converted)): 3.8 µM
GI50 (SR; read-out: GI50): 0.218 µM
CC50 (SR; [25]): 4.99 µM
TGI (SR; read-out: TGI): 0.664 µM
GI50 (SR; read-out: pGI50 (converted)): 0.219 µM
CC50 (SR; [26]): 5.01 µM
TGI (SR; read-out: pTGI (converted)): 0.661 µM
Activity (ACHN): 104%
Activity (HCT-116 [15]): 3%
Activity (UO-31 [16]): -61%
Activity [17]: 83%
Activity (SNB-19): 65%
Activity (MCF7 [18]): 98%
Activity (HL-60(TB)): 93%
Activity (HOP-62 [19]): 112%
Activity (SK-MEL-28 [20]): 92%
Activity (Malme-3M): -72%
GI50 (HCT-116 [21]; read-out: GI50): < 0.01 µM
GI50 (HCT-116 [21]; read-out: pGI50 (converted)): 0.01 µM
Activity (SN12C): 40%
GI50 (SK-MEL-5; read-out: GI50): 2.02 µM
CC50 (SK-MEL-5; [25]): 33.2 µM
TGI (SK-MEL-5; read-out: TGI): 11 µM
GI50 (SK-MEL-5; read-out: pGI50 (converted)): 2.04 µM
CC50 (SK-MEL-5; [26]): 33.1 µM
TGI (SK-MEL-5; read-out: pTGI (converted)): 11 µM
Activity (OVCAR-3 [22]): 107%
Activity (U-251): 54%
Activity (HCT-15 [23]): 96%
Activity (NCI-H522): 42%
Activity (SK-OV-3 [24]): 108%
